Assay results from the supplement of paper PMC10307832.

Columns and labels:
Assay in all cases: relative viability (nuclei count vs DMSO), 5 days (fraction); higher = more cells survive
[1] = compound: Cc1ccc2nc(NCCN)c3ncc(C)n3c2c1 + COc1cccc2cc(-c3nc([C@H]4CC[C@H](C(=O)O)CC4)n4ncnc(N)c34)[nH]c12 [OSI-027] (partner 0.5 µM)
Outline: (§1)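 Relative viability equals treated-well nuclei counts divided by vehicle-well nuclei counts. Counts came from 4× images of lung cancer cell lines grown in 1536-well plates for 5 days after pin-tool dosing on the day after seeding. Dosing used one drug alone or a fixed anchor-drug dose plus five library-drug doses (not always all listed) in √10 steps, and values are medians of duplicate plates.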

[2] = compound: Cc1ccc2nc(NCCN)c3ncc(C)n3c2c1 + C[C@]1(O)C[C@@H](c2nc(-c3ccc4ccc(-c5ccccc5)nc4c3)c3c(N)nccn32)C1 [Linsitinib] (partner 1 µM)
Outline: as §1

[3] = compound: Cc1ccc2nc(NCCN)c3ncc(C)n3c2c1 + N=C(N)NC(=N)NCCc1ccccc1 [Phenformin] (partner 250 µM)
Outline: as §1

Salubrinal + Luminespib = compound: O=C(/C=C/c1ccccc1)NC(NC(=S)Nc1cccc2cccnc12)C(Cl)(Cl)Cl [Salubrinal] + CCNC(=O)c1noc(-c2cc(C(C)C)c(O)cc2O)c1-c1ccc(CN2CCOCC2)cc1 [Luminespib] (partner 0.01 µM)
Outline: as §1

| Cell Line | relative viability ([1]; first compound 0.04 µM) | relative viability ([1]; first compound 0.1265 µM) | relative viability ([1]; first compound 0.4 µM) | relative viability ([1]; first compound 1.265 µM) | relative viability ([1]; first compound 4 µM) | relative viability ([2]; first compound 0.04 µM) | relative viability ([2]; first compound 0.1265 µM) | relative viability ([2]; first compound 0.4 µM) | relative viability ([2]; first compound 1.265 µM) | relative viability ([2]; first compound 4 µM) | relative viability ([3]; first compound 0.04 µM) | relative viability ([3]; first compound 0.1265 µM) | relative viability ([3]; first compound 0.4 µM) | relative viability ([3]; first compound 1.265 µM) | relative viability ([3]; first compound 4 µM) | relative viability (Salubrinal + Luminespib; first compound 0.08 µM) | relative viability (Salubrinal + Luminespib; first compound 0.253 µM) | relative viability (Salubrinal + Luminespib; first compound 0.8 µM) | relative viability (Salubrinal + Luminespib; first compound 2.53 µM) | relative viability (Salubrinal + Luminespib; first compound 8 µM) |
| --- | --- | --- | --- | --- | --- | --- | --- | --- | --- | --- | --- | --- | --- | --- | --- | --- | --- | --- | --- | --- |
| NCI-H2126 | 0.724 | 0.733 | 0.661 | 0.667 | 0.646 | 0.781 | 0.759 | 0.679 | 0.645 | 0.673 | 0.528 | 0.544 | 0.516 | 0.535 | 0.506 | 0.958 | 0.833 | 1.03 | 0.951 | 0.877 |
| HOP-62 | 0.93 | 0.83 | 0.582 | 0.848 | 0.813 | 1.11 | 0.912 | 1.11 | 0.922 | 0.89 | 0.676 | 0.643 | 0.575 | 0.657 | 0.653 | 0.936 | 0.676 | 0.968 | 0.882 | 0.861 |
| CAL-12T | 0.798 | 0.572 | 0.824 | 0.76 | 0.52 | 0.835 | 0.873 | 0.853 | 0.877 | 0.731 | 0.567 | 0.491 | 0.536 | 0.59 | 0.542 | 0.393 | 0.224 | 0.428 | 0.449 | 0.518 |
| NCI-H520 | 0.301 | 0.23 | 0.263 | 0.237 | 0.305 | 0.997 | 1.15 | 0.947 | 0.884 | 0.853 | 0.633 | 0.573 | 0.445 | 0.517 | 0.478 | 0.255 | 0.218 | 0.279 | 0.217 | 0.203 |
| NCI-H1755 | 0.77 | 0.738 | 0.718 | 0.72 | 0.655 | 0.989 | 1 | 0.934 | 1.07 | 0.946 | 0.661 | 0.665 | 0.581 | 0.625 | 0.583 | 0.414 | 0.637 | 0.707 | 0.293 | 0.378 |
| NCI-H2023 | 0.51 | 0.387 | 0.489 | 0.453 | 0.369 | 0.73 | 0.606 | 0.658 | 0.756 | 0.577 | 0.466 | 0.409 | 0.434 | 0.437 | 0.349 | 0.884 | 0.703 | 0.874 | 0.517 | 0.884 |
| NCI-H2009 | 0.764 | 0.668 | 0.722 | 0.632 | 0.525 | 1.15 | 1.14 | 1.22 | 1.22 | 1.05 | 0.514 | 0.399 | 0.489 | 0.401 | 0.393 | 1.09 | 0.966 | 0.984 | 0.995 | 0.878 |
